In US20240166603A1, “Method of Treating Cancer With Atpenin A5 Derviatives” (Texas Tech University System, priority 2018, published 2024):
Values after ≈ are worked out from the molar mass of the structure shown.

Tests used:
[1] = tested on: WPMY-1 prostate stromal cells; test: Cytotoxicity, WPMY-1 prostate stromal cells; type: cell-based; conditions: Homo sapiens
[2] = tested on: 3T3 cells; test: Cytotoxicity, 3T3 mouse embryonic fibroblast cells; type: cell-based; conditions: NIH3T3
[3] = tested on: 22Rv1 cells; test: Metabolic parameters, Seahorse XF Extracellular Flux Analyzer; type: cell-based, human; conditions: 48 hour incubation
Protocol: Next, the inventors determined the effect of complex II inhibition by the developed inhibitors on mitochondrial metabolic processes. The effect of 16c on electron transport parameters of 22Rv1 cells after 48 hour incubation was studied using a Seahorse XF Extracellular Flux Analyzer.
Assessment of Metabolic Parameters. Changes in oxygen consumption rate were measured using a XF24 Extracellular Flux Analyzer (Seahorse Bioscience, Billerica, MA). 22Rv1 cells were plated in XF24-well plates (40,000 cells/well) and allowed to adapt overnight. Treatments were performed with 16c at concentrations of 1, 10, 20, 30, 50 and 100 μg/mL and incubated for 48 hours. Mito Stress test was performed using oligomycin (10 μM), FCCP (5 μM) and Rotenone/Antimycin A (5 μM) based on the manufacturer's recommended protocol.

[4] = tested on: LNCaP cells; test: Potentiation of Enzalutamide in LNCaP cells (FIG. 9); type: cell-based
[5] = in vivo; conditions: 1 mg/kg
[6] = target: T1, mitochondrial complex II (CII) (Rattus norvegicus, UniProt P21913+Q641Z9+Q6PCT8)
T1 sequence (P21913 31-282): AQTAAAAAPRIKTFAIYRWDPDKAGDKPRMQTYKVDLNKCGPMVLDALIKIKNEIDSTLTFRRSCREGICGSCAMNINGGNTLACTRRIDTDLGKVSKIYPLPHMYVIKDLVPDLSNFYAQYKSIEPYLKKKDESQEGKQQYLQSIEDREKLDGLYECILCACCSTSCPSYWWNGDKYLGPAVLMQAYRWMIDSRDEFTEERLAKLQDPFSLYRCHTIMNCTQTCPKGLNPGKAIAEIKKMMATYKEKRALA
T1 sequence (Q641Z9 30-169 limits assumed): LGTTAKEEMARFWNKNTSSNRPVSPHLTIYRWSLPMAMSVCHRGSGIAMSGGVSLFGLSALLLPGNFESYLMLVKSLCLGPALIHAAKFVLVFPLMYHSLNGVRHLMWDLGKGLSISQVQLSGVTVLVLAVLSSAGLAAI
T1 sequence (Q6PCT8 57-159): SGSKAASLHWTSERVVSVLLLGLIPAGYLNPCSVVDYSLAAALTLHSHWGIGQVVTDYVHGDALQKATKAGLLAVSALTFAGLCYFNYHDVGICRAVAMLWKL
T1 sequence (Q920L2 35-656 partner): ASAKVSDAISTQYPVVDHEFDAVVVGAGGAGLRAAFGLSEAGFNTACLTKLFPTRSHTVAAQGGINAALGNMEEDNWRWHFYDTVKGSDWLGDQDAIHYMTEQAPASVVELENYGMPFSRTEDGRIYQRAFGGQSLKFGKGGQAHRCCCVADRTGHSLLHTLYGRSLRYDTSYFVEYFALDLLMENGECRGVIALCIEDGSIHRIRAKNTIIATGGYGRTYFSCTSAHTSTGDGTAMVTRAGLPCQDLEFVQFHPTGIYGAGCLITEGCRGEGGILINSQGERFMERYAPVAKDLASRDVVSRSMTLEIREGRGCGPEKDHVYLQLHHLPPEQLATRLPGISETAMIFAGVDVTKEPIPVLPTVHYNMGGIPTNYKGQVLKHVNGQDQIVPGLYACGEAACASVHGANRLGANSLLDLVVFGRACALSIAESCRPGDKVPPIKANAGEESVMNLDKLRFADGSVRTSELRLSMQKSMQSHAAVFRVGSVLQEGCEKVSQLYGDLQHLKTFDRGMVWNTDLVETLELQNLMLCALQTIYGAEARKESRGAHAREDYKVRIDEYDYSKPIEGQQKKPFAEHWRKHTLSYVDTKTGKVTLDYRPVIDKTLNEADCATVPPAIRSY

[7] = tested on: PC3 prostate cancer cells; test: Cytotoxicity MTS assay, PC3; conditions: Homo sapiens, 48 h, read-out: PC3 IC50
[8] = tested on: 22Rv1 prostate cancer cells; test: Cytotoxicity MTS assay, 22Rv1
[9] = tested on: DU-145 prostate cancer cells; test: Cytotoxicity MTS assay, DU-145; conditions: Homo sapiens, DU-145, 48 h, read-out: DU-145 IC50
[10] = tested on: HEK293 cells; test: Cytotoxicity MTS assay, HEK293
[11] = target: Complex I (NADH ubiquinone-oxidoreductase) (Mus musculus, UniProt P03888+Q91WD5+Q9DC70); test: Complex I inhibition assay, mouse cardiac mitochondria; conditions: Table 3
[12] = target: T1, mitochondrial complex II (CII); test: Complex II inhibition assay, isolated rat heart mitochondria; conditions: conversion of the nM value
[13] = tested on: PC3 prostate cancer cells under hypoxia; test: Cell death under hypoxia, microfluidic chip, Annexin V and Sytox Green; conditions: 10 μM, hypoxia

Question: With CCCCCC(=O)c1c(O)nc(OC)c(OC)c1O [Compound 16c, 1-(2,4-dihydroxy-5,6-dimethoxypyridin-3-yl)hexan-1-one] as the compound, how does the IC50 [1] read?
Answer: 18.4 µg/mL (≈ 68.3 µM)

Question: What about the IC50 [2] of the same compound?
Answer: 31.8 µg/mL (≈ 118 µM)

Question: What about the ATP production [3] of the same compound?
Answer: inhibition of ATP production

Question: What about the basal respiration [3] of the same compound?
Answer: reducing basal respiration

Question: What about the maximal respiration [3] of the same compound?
Answer: reduction of maximal respiration

Question: And the oxygen consumption rate [3]?
Answer: substantially reduced in a dose-dependent manner

Question: And the “effect on Enzalutamide (ENZA) in LNCaP cells” value [4]?
Answer: potentiates Enzalutamide

Question: What about the AUC [5] of the same compound?
Answer: 19.6 ng·h/mL

Question: What about the Vd [5] of the same compound?
Answer: 89.5 L/kg

Question: And the half-life [5]?
Answer: 103 min

Question: And the AUC(0-inf) ([5]; AUCinf,obs)?
Answer: 8.3 ng·h/mL

Question: What about the AUC(0-inf) ([5]; AUCinf,pred) of the same compound?
Answer: 8.32 ng·h/mL

Question: What about the Tmax [5] of the same compound?
Answer: 22.8 min

Question: What about the “AUCinf,obs” value ([5]; female) of the same compound?
Answer: 23.61 ng·h/mL

Question: What about the “AUCinf,pred” value ([5]; female) of the same compound?
Answer: 23.63 ng·h/mL

Question: And the t1/2λz ([5]; female)?
Answer: 104 min

Question: What about the AUC(0-inf) ([5]; female, AUCinf,obs) of the same compound?
Answer: 36 ng·h/mL

Question: And the AUC(0-inf) ([5]; female, AUCinf,pred)?
Answer: 36 ng·h/mL

Question: What about the Cmax ([5]; female) of the same compound?
Answer: 140 ng/mL

Question: And the Tmax ([5]; female)?
Answer: 15 min

Question: What about the Vssobs ([5]; male) of the same compound?
Answer: 134.64772 L/kg

Question: What about the Vsspred ([5]; male) of the same compound?
Answer: 129.16994 L/kg

Question: What about the t1/2λz ([5]; male) of the same compound?
Answer: 103 min

Question: What about the AUC(0-inf) ([5]; male, AUCinf,obs) of the same compound?
Answer: 10.7 ng·h/mL

Question: And the AUC(0-inf) ([5]; male, AUCinf,pred)?
Answer: 10.6 ng·h/mL

Question: What about the Cmax ([5]; male) of the same compound?
Answer: 23.9 ng/mL

Question: And the Tmax ([5]; male)?
Answer: 30 min

Question: And the “LLE (Ligand-Lipophilicity Efficiency)” value [6]?
Answer: 5.62

Question: What about the IC50 [7] of the same compound?
Answer: 38 µg/mL (≈ 141 µM)

Question: What about the IC50 ([8]; Homo sapiens, 22Rv1, 48 h, read-out: 22Rv1 IC50) of the same compound?
Answer: 11 µg/mL (≈ 40.8 µM)

Question: What about the “22Rv1 IC50” value ([8]; MTS, 48 hours unless otherwise noted) of the same compound?
Answer: 11 µg/mL

Question: And the “increase in efficacy relative to Enzalutamide, inhibition of cancer growth in vitro” value ([8]; cell line not given)?
Answer: 10 fold

Question: And the IC50 [9]?
Answer: 12 µg/mL (≈ 44.6 µM)

Question: And the “selectivity for prostate cancer cells over HEK293” value ([10]; 16c: DU-145 and 22Rv1, 16k: 22Rv1)?
Answer: 7.4 fold

Question: What about the IC50 ([10]; Homo sapiens, HEK293, 48 h, read-out: HEK293 IC50) of the same compound?
Answer: 81 µg/mL (≈ 301 µM)

Question: What about the “Selectivity Ratio (CII:CI)” value [11] of the same compound?
Answer: >156

Question: And the “CII IC50 expressed” value [12]?
Answer: 0.01723 µg/mL

Question: What about the cell death [13] of the same compound?
Answer: 20%
